Data from patent US20250144069A1, “BILOBALIDE DERIVATIVE COMPOUNDS FOR TREATING NEUROLOGICAL DISEASES AND CANCERS” (The Chinese University of Hong Kong, priority 2023, published 2025).
Where two headings read alike, the source gives them in different places.

Legend:
Jurkat cells = assay: Single-dose CCK-8 cell viability screening (suspension cells); assay type: cell-based, human; conditions: for viability at 50 µM: Homo sapiens, 48 h
Procedure: (§1) In this example, the anti-cancer properties of the BB analogues described in Table 1d were evaluated. Single-dose screening approach is used for initial testing to assess the cytotoxic effect of the BB analogues (also referred to as ‘BB compounds’) on Jurkat cells (human T cell leukaemia cells) and A549 cells (human lung cancer cells).
Method for Suspension Cells (Jurkat Cells)
5000 cells/90 uL were seeded in 96-well plates. 10 uL of 500 uM compound (10×) was added to each well in 6 replicates. The following controls were prepared.
Blank control: 10 uL 1% DMSO in media with no cells per well.
Positive control: 10 uL of 100 uM 5-flurouracil (10×) per well.
Negative control: 10 uL of 1% DMSO in media (10×) per well.
Each 96-well plate included 7 BB analogues and the complete set of controls (in 6 replicates).
(§2) Cells were incubated at 37° C.+5% CO2 for 46 hours. 10 uL of CCK8 solution was added to each well. Cells were then incubated at 37° C.+5% CO2 for 2 hours. Absorbance at 450 nm was measured using a multiplate reader.
(§3) Viability was calculated using the equation: […]
(§4) The benchmark in Table 2 was used to define the activities of each compound.

[1] = Single-dose CCK-8 cell viability screening (adherent cells); assay type: cell-based, human; conditions: average of A549 and Jurkat % viability, 50 uM, 48 h; for viability at 50 µM: Homo sapiens
Procedure: as §1
(§5) Method for Adherent Cells (A549 Cells)
(§6) In this example, 5000 cells/100 uL were seeded in 96-well plates and incubate at 37° C.+5% CO2 overnight. Media were replaced with 100 uL of 50 uM compound per well in 6 replicates. The following controls were prepared.
(§7) Blank control: 100 uL 0.1% DMSO in media with no cells per well.
(§8) Positive control: 100 uL of 10 uM 5-flurouracil per well.
(§9) Negative control: 100 uL of 0.1% DMSO in media per well.
(§10) Each 96-well plate included 7 compounds and the complete set of controls (in 6 replicates).
as §2, §3, §4

A549 cells [2] = assay: as above; assay type: cell-based, human; conditions: for viability at 50 µM: Homo sapiens, read-out: % Viability (50 uM, 48 h) A549
Procedure: as §1, §5, §6, §7, §8, §9, §10, §2, §3, §4

A549 cells [3] = assay: Dose-dependent CCK8 viability assay; assay type: cell-based, human; conditions: Homo sapiens
Procedure: In this example, dose-dependent CCK8 Viability assay was performed to determine the IC50 (the concentration of compound to achieve 50% viability) of several of the hit compounds identified from Example 2. A variety of cell lines were used: • Jurkat cells: Human leukemia • A549 cells: Human NSCLC • KP-1 cells: Mouse NSCLC with KRAS and P53 mutations • MCF-7 cells: Human breast cancer
Method for Adherent Cells (A549, MCF-7 and KP-1 Cells)
5000 cells/100 uL were seeded in 96-well plates and incubate at 37° C.+5% CO2 overnight. Media were replaced with 100 uL of compound per well in 6 replicates in a series of 2-fold dilutions. The following controls were prepared.
as §7, §8, §9
Each 96-well plate included 1 compound in 7 concentrations and a complete set of controls (in 6 replicates).
Cells were incubated at 37° C.+5% CO2 for 46 hours. 10 uL of CCK8 solution was added to each well. Cells were incubated at 37° C.+5% CO2 for 2 hours. Absorbance at 450 nm was measured using a multiplate reader.
as §3

[4] = Hydrolytic stability in buffer monitored by LC-MS/MS
[5] = Jurkat, Jurkat cells, 50 uM, CCK-8, read-out: % Viability (50 uM, 48 h) Jurkat
[6] = A549, 48 h, A549 cells, 50 uM, 48 h, CCK-8
[7] = Jurkat, read-out: % Viability (50 uM, 48 h) Jurkat

SMILES | viability at 50 µM (Jurkat cells; [5]) [%] | viability at 50 µM ([1]; A549, 48 h) [%] | viability at 50 µM (A549 cells [2]; [6]) [%] | other results
CC(C)(C)[C@]1(O)C[C@@H]2OC(=O)C[C@@]23C(=O)O[C@@H]2N(c4ccc(Cl)c(Cl)c4)C(=O)[C@H](OC(=O)c4ccccc4)[C@]213 [P-21, (3aS,5aS,8R,8aS,9R,10aS)-9-(tert-butyl)-9-hydroxy-2,4,7-trioxo-6-(3,4-dichloro-phenyl)octahydro-4H,9H-furo [3″,2″:2′,3′]cyclopenta [1′,2′:3,4]furo [2,3-b]pyrrol-8-yl benzoate] | 53.5 | 55 | 56.5 | IC50 (A549 cells [3]; A549, 48 h): 17.9 µM
CC(C)(C)[C@]1(O)C[C@@H]2OC(=O)C[C@@]23C(=O)O[C@@H]2N(c4ccc(C(F)(F)F)cc4)C(=O)[C@H](OC(=O)c4ccccc4)[C@]213 [P-29, (3aS,5aS,8R,9R,10aS)-9-(tert-butyl)-9-hydroxy-2,4,7-trioxo-6-(4-(trifluoromethyl)phenyl)octahydro-4H,9H-furo [3″,2″:2′,3′]cyclopenta [1′,2′:3,4]furo [2,3-b]pyrrol-8-yl benzoate] | 59.6 | 53.1 | 46.7 | IC50 (A549 cells [3]; A549, 48 h): 5.84 µM
CC(C)(C)[C@]1(O)C[C@@H]2OC(=O)C[C@@]23C(=O)O[C@@H]2N(CC45CC6CC(CC(C6)C4)C5)C(=O)[C@H](OC(=O)c4ccccc4)[C@]213 [SCC363, (3aS,5aS,8R,8aS,9R,10aS)-6-(adamantan-1-ylmethyl)-9-(tert-butyl)-9-hydroxy-2,4,7-trioxooctahydro-4H,9H-furo[3″,2″:2′,3′]cyclopenta[1′,2′:3,4]furo[2,3-b]pyrrol-8-yl benzoate] |  |  |  | IC50 (A549 cells [3]; 48 hours): 9.99 µM
CC(C)(C)[C@]1(O)C[C@@H]2OC(=O)C[C@@]23C(=O)O[C@@H]2NC(=O)[C@H](O)[C@]213 [XBB-006, (3aS,5aS,8R,8aS,9R,10aS)-9-(tert-butyl)-8,9-dihydroxytetrahydro-4H,9Hfuro[3″,2″:2′,3′]cyclopenta[1′,2′:3,4]furo[2,3-b]pyrrole-2,4,7(3H,8H)-trione] |  |  |  | concentration remaining (hydrolytic stability) ([4]; buffer pH 6.8, after 20 hours): about 80%; concentration remaining (hydrolytic stability) ([4]; buffer pH 7.4, within the first 10 hours): above 80%; viability at 50 µM (Jurkat cells; Jurkat cells, 50 uM, CCK-8, read-out: % Viability (50 uM, 48 h) Jurkat): 102%; viability at 50 µM [1]: 99.2%; viability at 50 µM (A549 cells [2]; A549 cells, 50 uM, 48 h, CCK-8): 96.4%
CC(=O)Nc1ccc(N2C(=O)[C@H](OC(=O)c3ccccc3)[C@@]34[C@@H]2OC(=O)[C@@]32CC(=O)O[C@H]2C[C@@]4(O)C(C)(C)C)cc1 [XBB-035, (3aS,5aS,8R,8aS,9R,10aS)-6-(4-acetamidophenyl)-9-(tert-butyl)-9-hydroxy-2,4,7-trioxooctahydro-4H,9H-furo [3″,2″:2′,3′]cyclopenta [1′,2′:3,4]furo[2,3-b]pyrrol-8-yl benzoate] | 87 | 76.9 | 66.9 | 
CC(C)(C)OC(=O)Nc1ccc(N2C(=O)[C@H](OC(=O)c3ccccc3)[C@@]34[C@@H]2OC(=O)[C@@]32CC(=O)O[C@H]2C[C@@]4(O)C(C)(C)C)cc1 [XBB-036] | 88.8 | 70.6 | 52.4 | 
CC(C)(C)[C@]1(O)C[C@@H]2OC(=O)C[C@@]23C(=O)O[C@@H]2N(c4ccc(N)cc4)C(=O)[C@H](OC(=O)c4ccccc4)[C@]213 [XBB-037′] |  |  |  | % Viability (50 uM, 48 h) Jurkat (Jurkat cells; Jurkat cells, 50 uM, CCK-8, 50 µM): 98.42%; Average (%) [1]: 104.22%; % Viability (50 uM, 48 h) A549 (A549 cells [2]; A549 cells, 50 uM, 48 h, CCK-8): 110.02%
CC(C)(C)[C@]1(O)C[C@@H]2OC(=O)C[C@@]23C(=O)O[C@@H]2N(c4ccc(N5CCOCC5)cc4)C(=O)[C@H](OC(=O)c4ccccc4)[C@]213 [XBB-038, (3aS,5aS,8R,8aS,9R,10aS)-9-(tert-butyl)-9-hydroxy-6-(4-morpholinophenyl)-2,4,7-trioxooctahydro-4H,9H-furo [3″,2″:2′,3′]cyclopenta [1′,2′:3,4]furo [2,3-b]pyrrol-8-yl benzoate] | 84.8 | 90.1 | 95.3 | 
CC(C)(C)[C@]1(O)C[C@@H]2OC(=O)C[C@@]23C(=O)O[C@@H]2N(c4ccc5c(c4)OCO5)C(=O)[C@H](OC(=O)c4ccccc4)[C@]213 [XBB-039, (3aS,5aS,8R,8aS,9R,10aS)-6-(benzo[d][1,3]dioxol-5-yl)-9-(tert-butyl)-9-hydroxy-2,4,7-trioxooctahydro-4H,9H-furo [3″,2″:2′,3′]cyclopenta [1′,2′:3,4]furo [2,3-b]pyrrol-8-yl benzoate] | 69.7 | 74.1 | 78.4 | 
CC(C)(C)[C@]1(O)C[C@@H]2OC(=O)C[C@@]23C(=O)O[C@@H]2N(c4cccnc4)C(=O)[C@H](OC(=O)c4ccccc4)[C@]213 [XBB-040, (3aS,5aS,8R,8aS,9R,10aS)-9-(tert-butyl)-9-hydroxy-2,4,7-trioxo-6-(pyridin-3-yl)octahydro-4H,9H-furo [3″,2″:2′,3′]cyclopenta [1′,2′:3,4]furo [2,3-b]pyrrol-8-yl benzoate] |  | 99 |  | viability at 50 µM (Jurkat cells; [7]): 98.4%; viability at 50 µM (A549 cells [2]; A549, 48 h): 99.6%
CC(C)(C)[C@]1(O)C[C@@H]2OC(=O)C[C@@]23C(=O)O[C@@H]2N(c4ccc(N5CCOCC5)cc4)C(=O)[C@H](O)[C@]213 [XBB-042, (3aS,5aS,8R,8aS,9R,10aS)-9-(tert-butyl)-8,9-dihydroxy-6-(4-morpholinophenyl)tetrahydro-4H,9H-furo [3″,2″:2′,3′]cyclopenta [1′,2′:3,4]furo [2,3-b]pyrrole-2,4,7(3H,8H)-trione] |  | 96.7 |  | viability at 50 µM (Jurkat cells; [7]): 97.8%; viability at 50 µM (A549 cells [2]; A549, 48 h): 95.6%
CC(C)(C)[C@]1(O)C[C@@H]2OC(=O)C[C@@]23C(=O)O[C@@H]2N(CC4CCN(C(=O)c5ccc6c(c5)OCCO6)CC4)C(=O)[C@H](OC(=O)c4ccccc4)[C@]213 [XBB-045, (3aS,5aS,8R,8aS,9R,10aS)-9-(tert-butyl)-6-((1-(2,3-dihydrobenzo[b][1,4]dioxine-6-carbonyl)piperidin-4-yl)methyl)-9-hydroxy-2,4,7-trioxooctahydro-4H,9H-furo [3″,2″:2′,3′]cyclopenta [1′,2′:3,4]furo[2,3-b]pyrrol-8-yl benzoate] | 84.8 | 85.9 | 87 | 
CC(=O)O[C@H]1C(=O)N(CCn2cc3ccccc3c2C)[C@H]2OC(=O)[C@]34CC(=O)O[C@H]3C=C(C(C)(C)C)[C@@]214 [XBB-054] | 93 | 90.9 | 88.8 | 
CC(=O)O[C@H]1C(=O)N(CC2CCN(C(=O)OC(C)(C)C)CC2)[C@H]2OC(=O)[C@]34CC(=O)O[C@H]3C=C(C(C)(C)C)[C@@]214 [XBB-060] | 104 | 106 | 108 | 
CC(C)(C)[C@]1(O)C[C@@H]2OC(=O)C[C@@]23C(=O)O[C@@H]2N(c4cccc5c4OCO5)C(=O)[C@H](OC(=O)c4ccccc4)[C@]213 [XBB-068] | 101 | 97.5 | 93.6 | 
CC(=O)O[C@H]1C(=O)NC(N)=N[C@H]2OC(=O)[C@]34CC(=O)O[C@H]3C=C(C(C)(C)C)[C@@]214 [XBB-073] | 107 | 86.5 | 66.5 | 
C=C(C)[C@@]1(C)C[C@@H]2OC(=O)C[C@@]23C(=O)O[C@@H]2N(c4ccccc4)NC(=O)[C@H](OC(C)=O)[C@]213 [XBB-075] | 101 | 84 | 67.4 | 
